From US11141423B2, “Methods of screening compounds useful for treatment of a liver disease” (Icahn School of Medicine at Mount Sinai, priority 2010, dated 2021)

Tests used:
CB1R-AT1R heteromer [1] = molecular target: T1, CB1R-AT1R heteromer (UniProt P30556+P47746); assay: Ang II-mediated pERK in Neuro2A-AT1R cells; type: cell-based
T1 construct: Neuro2A cells expressing endogenous CB1R and recombinant AT1R; expressed in transfected cells; host or cells: Neuro2A stably expressing AT1R (CB1R endogenous)
Protocol: (§1) Generation of HEK293-Transfected Cells and Neuro2A Cell Line Stably Expressing AT1R. These cell lines were generated using standard procedure of transfection and antibiotic selection of expressing cells. Screening of positive cells was carried out by immunostaining of the receptors to evaluate the homogeneity of expression in the clones.
RNAi-mediated CB1R and βarrestin-2 downregulation.
Neuro2A cells expressing endogenous CB1R and recombinant AT1R were pretreated with vehicle or THL (2 μM) for 3 hours in serum free media and stimulated with vehicle (CTL=control) or with the receptor ligand (angiotensin II) for 3 minutes. […] ERK phosphorylation was assessed by Western blot using antibodies to pERK and ERK (n=3-5). […] The cells were processed for infrared detection of pERK.

profibrogenic genes = assay: Profibrogenic gene expression in liver of CCl4 or vehicle treated mice; type: in vivo
DAGL = conditions: cited from earlier work
[2] = test system: α-SMA, TGFβ, pro-collagen α III and pro-collagen α I; assay: Ang II-mediated fibrogenic response in eHSC, real-time PCR; type: cell-based, rat; conditions: eHSCs, 4 hours, mRNA normalized to GAPDH
Protocol: (§2) Reverse Transcription and Real-Time PCR. Total RNA was isolated from 3×10^8 HSCs using the TRIzol method (Invitrogen, Carlsbad, Calif., USA). RNA (1.0 μg) was reverse-transcribed in 20 μl of buffer containing 50 μM oligo(dT)20, 25 mM MgCl2, 0.1 M dithiothreitol, 40 U/μl RNaseOUT, and 200 U/μl SuperScript III RT for 50 min at 50° C. The reaction was stopped by incubating the samples at 85° C. for 5 min, and 40 μl of nuclease-free water was added. Real-time PCR was performed by using the Brilliant SYBR Green QPCR Master Mix. The PCR template source was either 30 ng of first-strand cDNA or purified DNA standard. Primer sequences used to amplify the desired cDNA are detailed in Table 2. Amplification was performed with a spectrofluorometric thermal cycler (Stratagene). After an initial denaturation step at 95° C. for 10 min, amplification was performed using 40 cycles of denaturation (95° C. for 30 s), annealing (56° C. for 1 min), and extension (72° C. for 1 min). To standardize mRNA levels, we amplified GAPDH, a housekeeping gene, as an internal control. […] For analysis of gene expression, after reverse transcription, the number of copies of mRNA for the indicated transcripts were determined by real-time PCR. Data were normalized to GAPDH mRNA and are expressed as the mean±SD (n=3 in quadruplicate).

[3] = test system: α-SMA, TGFβ, pro-collagen α III and pro-collagen α I; assay: CGS21680-mediated fibrogenic response in eHSC, real-time PCR; type: cell-based, rat; conditions: eHSCs, 6 hours, mRNA normalized to GAPDH
Protocol: as §2, with “quadruplicate). […]” for “quadruplicate).”

AT1R = molecular target: T2, AT1R (Rattus norvegicus, UniProt P25095); assay: Ang II-mediated pERK in control HSCs (cHSCs), Western blot; type: cell-based; conditions: cHSCs from control rats; Ang II stimulation; THL pretreatment 10 or 30 minutes
T2 construct: a profibrogenic receptor, AT1R, which was also expressed in cHSCs; endogenous in cells; host or cells: primary hepatic stellate cells from control-diet Sprague-Dawley rats (cHSCs)
T2 sequence (P25095 1-359): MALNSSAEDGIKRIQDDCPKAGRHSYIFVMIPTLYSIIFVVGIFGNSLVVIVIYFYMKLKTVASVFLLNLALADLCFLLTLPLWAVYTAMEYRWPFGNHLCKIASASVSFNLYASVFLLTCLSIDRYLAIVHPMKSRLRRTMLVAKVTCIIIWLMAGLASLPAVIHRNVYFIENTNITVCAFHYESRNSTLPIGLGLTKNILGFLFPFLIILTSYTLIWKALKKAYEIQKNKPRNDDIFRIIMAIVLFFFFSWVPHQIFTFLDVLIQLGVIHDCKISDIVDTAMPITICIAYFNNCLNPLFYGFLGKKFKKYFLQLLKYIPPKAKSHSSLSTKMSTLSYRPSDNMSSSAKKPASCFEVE
Excerpt: HSCs from ethanol treated rats were generated in the laboratory of Dr. Natalia Nieto: Rats (300 g female Sprague-Dawley, N=10/group) were fed the control or ethanol Lieber-DeCarli diets for 8 months (Lieber and DeCarli, 1989). Animals received humane care according to the criteria outlined in the Guide for Care and Use of Laboratory Animals. Details regarding pathology of the liver of the control and alcohol fed rats are described in (Cubero and Nieto, 2008; Urtasun et al., 2009).
Isolation of Hepatic Stellate Cells: These were isolated as described before. (Friedman, S. L. Hepatic stellate cells: protean, multifunctional, and enigmatic cells of the liver. Physiol Rev 88, 125-72 (2008); Teixeira-Clerc, F. et al. CB1 cannabinoid receptor antagonism: a new strategy for the treatment of liver fibrosis. Nat Med 12, 671-6 (2006)).

CB1R-AT1R heteromer [4] = molecular target: T3, CB1R-AT1R heteromer (Rattus norvegicus, UniProt P20272+P25095); assay: Ang II-mediated pERK in activated HSCs (eHSCs), Western blot; type: cell-based; conditions: eHSCs from ethanol treated rats; Ang II stimulation; THL pretreatment 10 or 30 minutes; pERK normalized to total ERK
T3 construct: endogenous in cells; host or cells: primary hepatic stellate cells from ethanol-fed Sprague-Dawley rats (eHSCs)
Excerpt: Animals received humane care according to the criteria outlined in the Guide for Care and Use of Laboratory Animals.
Isolation of Hepatic Stellate Cells: These were isolated as described before.

CB1R-AT1R heteromer [5] = molecular target: T4, CB1R-AT1R heteromer (Homo sapiens, UniProt P21554+P30556); assay: Ang II-mediated pERK in HEK293 transfected with AT1R and CB1R; type: cell-based
T4 construct: expressed in transfected cells; host or cells: HEK293
Protocol: FIG. 3A. […] ERK phosphorylation was assessed by Western blot using antibodies to pERK and ERK. Data represent mean±SEM (n=4).
as §1

T1 sequence (P47746 whole entry): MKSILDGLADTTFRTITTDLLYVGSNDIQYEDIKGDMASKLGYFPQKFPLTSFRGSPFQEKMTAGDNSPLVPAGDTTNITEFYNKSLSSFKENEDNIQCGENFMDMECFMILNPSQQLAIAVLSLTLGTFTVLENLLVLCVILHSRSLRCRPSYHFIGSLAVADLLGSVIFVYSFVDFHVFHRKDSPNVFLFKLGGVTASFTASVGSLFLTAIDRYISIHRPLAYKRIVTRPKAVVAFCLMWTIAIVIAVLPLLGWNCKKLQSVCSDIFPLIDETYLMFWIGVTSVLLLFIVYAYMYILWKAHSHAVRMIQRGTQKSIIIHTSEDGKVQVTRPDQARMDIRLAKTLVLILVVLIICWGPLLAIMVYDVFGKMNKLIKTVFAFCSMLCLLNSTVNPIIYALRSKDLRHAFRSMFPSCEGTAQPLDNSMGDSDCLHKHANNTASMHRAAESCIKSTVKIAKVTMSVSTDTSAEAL
T1 sequence (P30556 whole entry): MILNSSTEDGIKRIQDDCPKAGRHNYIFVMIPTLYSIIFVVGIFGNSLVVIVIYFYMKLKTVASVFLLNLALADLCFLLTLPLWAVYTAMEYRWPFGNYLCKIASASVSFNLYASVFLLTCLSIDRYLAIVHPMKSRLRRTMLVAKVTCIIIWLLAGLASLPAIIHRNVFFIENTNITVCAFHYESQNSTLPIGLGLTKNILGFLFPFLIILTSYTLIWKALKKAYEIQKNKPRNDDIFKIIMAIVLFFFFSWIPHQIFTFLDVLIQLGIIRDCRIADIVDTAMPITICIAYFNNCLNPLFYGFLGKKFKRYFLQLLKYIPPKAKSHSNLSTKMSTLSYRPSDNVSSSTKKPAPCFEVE
T4 sequence (P21554 whole entry): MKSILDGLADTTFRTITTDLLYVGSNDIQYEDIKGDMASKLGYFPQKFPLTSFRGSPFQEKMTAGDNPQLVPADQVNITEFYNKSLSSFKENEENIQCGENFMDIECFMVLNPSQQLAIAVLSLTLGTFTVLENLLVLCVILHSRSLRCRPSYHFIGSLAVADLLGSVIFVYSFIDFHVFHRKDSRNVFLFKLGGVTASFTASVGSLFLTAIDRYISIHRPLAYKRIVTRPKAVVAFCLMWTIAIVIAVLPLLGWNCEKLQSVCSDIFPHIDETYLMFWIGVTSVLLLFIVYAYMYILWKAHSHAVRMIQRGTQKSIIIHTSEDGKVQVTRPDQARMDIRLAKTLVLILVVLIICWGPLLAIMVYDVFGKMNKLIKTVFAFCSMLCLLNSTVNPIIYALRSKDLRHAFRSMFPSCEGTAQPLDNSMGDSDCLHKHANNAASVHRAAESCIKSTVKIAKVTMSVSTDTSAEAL
T4 sequence (P30556 whole entry): as the sequence (P30556 whole entry) above
T3 sequence (P20272 whole entry, one chain of several): as the sequence (P47746 whole entry) above, with D95E counted along it

CCCCC/C=C\C/C=C\C/C=C\C/C=C\CCCC(=O)OC(CO)CO [2-AG, 2-arachidonoyl glycerol]
Effect on THL-induced loss of Ang II-mediated signaling (CB1R-AT1R heteromer [1]): reversed | 2-AG-mediated ERK1/2 phosphorylation (CB1R-AT1R heteromer [1]; THL pretreated Neuro2A-AT1, constant agonist concentration, increasing doses of 2-AG): concentration-dependent

CCNC(=O)[C@H]1O[C@@H](n2cnc3c(N)nc(NCCc4ccc(CCC(=O)O)cc4)nc32)[C@H](O)[C@@H]1O [CGS21680]
Expression of profibrogenic genes in liver (profibrogenic genes; CCl4 treated mice, acute i.p. injection CGS21680 2 mg/kg, 6 hours): further increased | Expression of profibrogenic genes in liver (profibrogenic genes; non-fibrotic livers from vehicle-treated mice, CGS21680 2 mg/kg i.p.): did not elevate

CCCCCCC(C)(C)c1cc(O)c2c(c1)OC(C)(C)[C@@H]1CC=C(CO)C[C@@H]21 [Hu210]
Effect on AT1R signaling of a non-signaling concentration of CB1R agonist (CB1R-AT1R heteromer [1]): potentiates | Effect on THL-induced loss of Ang II-mediated signaling (CB1R-AT1R heteromer [1]): reversed

O=C(NCCCCCCNC(=O)ON=C1CCCCC1)ON=C1CCCCC1 [RHC80267, 1,6-bis-(cyclohexyloximino-carbonylamino)-hexane]
Inhibition of DAGL versus other lipases (DAGL): inhibit DAGL at concentrations lower than those required to inhibit other lipases

Cc1c(C(=O)NN2CCCCC2)nn(-c2ccc(Cl)cc2Cl)c1-c1ccc(Cl)cc1 [SR141716]
Effect on Ang II-mediated increase in expression of profibrogenic markers [2]: prevents | Effect on Ang II-mediated increase in expression of profibrogenic markers ([2]; listed as CB1R antagonist): completely blocked | Effect on CGS-mediated increase in expression of profibrogenic markers ([3]; listed as CB1R antagonist): completely blocked | Effect on CGS-mediated increase in expression of profibrogenic markers ([3]; listed as SR): prevents | Effect on Ang II-mediated ERK phosphorylation in cHSCs (AT1R): not

CCCCCCCCCCC[C@@H](C[C@@H]1OC(=O)[C@H]1CCCCCC)OC(=O)[C@H](CC(C)C)NC=O [THL, tetrahydrolipstatin]
Effect on Ang II-mediated ERK phosphorylation in eHSCs (CB1R-AT1R heteromer [4]): decreased | Inhibition of DAGL versus other lipases (DAGL): inhibit DAGL at concentrations lower than those required to inhibit other lipases | ERK1/2 phosphorylation upon agonist stimulation of the associated receptor (CB1R-AT1R heteromer [1]; Neuro2A-AT1, THL 2 μM, 3 hours, serum free media, angiotensin II 3 minutes): marked decrease | Effect on Ang II-mediated signaling (blocking 2-AG production) (CB1R-AT1R heteromer [1]; Neuro2A-AT1R): loss | Effect on Ang II-mediated ERK phosphorylation in cHSCs (AT1R): not | Effect on Ang II-mediated signaling (pERK) (CB1R-AT1R heteromer [5]; HEK293 co-expressing CB1R and AT1R, 10 nM Ang II 3 minutes, SR 1 μM, THL 1 μM, 1 hour pre-treatment): marked decrease

Ang II: Angiotensin II, an agonist of AT1R (DRVYIHPF)
pERK levels at concentrations of Ang II superior to 10 nM (CB1R-AT1R heteromer [1]): decrease | pERK levels on Ang II stimulation (CB1R-AT1R heteromer [1]): dose-dependent rapid and transient enhancement | Increase in pERK on Ang II stimulation (CB1R-AT1R heteromer [5]): greater increase

pertussis toxin
Effect on AT1R signaling (Ang II pERK), G protein coupling (CB1R-AT1R heteromer [1]; cells co-expressing CB1R and AT1R, PTX 15 nM, 16 hours, forskolin 1 μM, 30 min): markedly inhibited
